Assays:
[1] = Body weight and weight gain of mice on cholesterol-enriched diet, 12 weeks of treatment; format: in vivo, C57bl6J male mice; settings: diet rich in cholesterol
Method: (§1) […] C57bl6J male mice (8 weeks of age) from breeding company Janvier (Le Genest Saint Isle, France) are distributed in cages and housed in a room with controlled humidity and temperature (23±0.5° C.). They are subject to a 12/12-hr light cycle (light at 7 am). During one week of adaptation, the animals have free access to drinking water and food, and are then randomized into 5 groups of 12 animals using as selection criteria weight, triglyceridemia and cholesterolemia.
(§2) • a control group receiving a diet enriched in cholesterol (see composition in Table 1) • a group treated with the reference, atorvastatin, 10 mg/kg/day, • a group receiving a 125 ng/kg/day concentration of Lipistase, • a group receiving PS (a mixture of phytosterols and stanols) to the total dose of 1.2 g/kg/day, • a group receiving a combination of Lipistase and phytosterols.
(§3) All products (reference, study products and combination of products) are administered in the diet enriched in cholesterol, and administration to animals lasts three months. Lipistase, being in the form of a soybean oil suspension, all diets receive the same volume (1.8% w/w) of neutral soybean oil than that required to provide the desired amount of Lipistase.
The assessment of weight and food intake is carried out once a week. […]

[2] = system: C57B16J mice submitted to diet rich in cholesterol; assay: Adiposity index and distribution of white adipose tissue after 12 weeks; format: in vivo, C57bl6J male mice; settings: after 12 weeks of treatment
Method: as §1, §2, §3
Animals are sacrificed by cervical dislocation; liver, muscles (gastrocnemius and soleus), heart are quickly dissected, weighed and frozen in liquid nitrogen, then stored at −80° C. The various deposits of fat tissues (subcutaneous, peri-renal, inguinal and mesenteric) are removed and weighed to calculate the adiposity index.

[3] = system: C57B16J mice submitted to diet rich in cholesterol; assay: Index of adiponectin secretion by adipose tissue; format: in vivo, C57bl6J male mice; settings: adiponectin concentration (μg/ml)/mass of adipose tissue (g)
Method: as §1, §2
as §3, with “Lipistase. […]” for “Lipistase.”

[4] = system: C57B16J mice submitted to diet rich in cholesterol; assay: Distribution of cholesterol in lipoproteins by FPLC; format: in vivo, C57bl6J male mice; settings: VLDL fraction
Method: as §1, §2
All products (reference, study products and combination of products) are administered in the diet enriched in cholesterol, and administration to animals lasts three months. […]
The determination of lipoprotein profiles is carried out by FPLC (Synelvia, France) after two and three months of treatment and the amounts of cholesterol and triglycerides are measured in the different fractions (HDL, LDL and VLDL).

[5] = system: C57B16J mice submitted to diet rich in cholesterol; assay: Non-fasting glycemia after 12 weeks; format: in vivo, C57bl6J male mice; settings: after 12 weeks of treatment
Method: as §1
as §2, with “phytosterols. […]” for “phytosterols.”
Euthanasia is performed after 3 months of treatment (12 weeks). A blood test is performed, and the following parameters are measured on an automated Konelab (Thermo Fisher, France): total cholesterol (Thermo Fisher, 981,813), triglycerides (Thermo Fisher, 981,786), glucose (Thermo Fisher, 981,780), ALAT (Thermo Fisher, 981,769), ALP (Thermo Fisher, 981,771), ASAT (Thermo Fisher, 981,771).

[6] = system: C57B16J mice submitted to diet rich in cholesterol; assay: Non-fasting insulinemia after 12 weeks; format: in vivo, C57bl6J male mice; settings: after 12 weeks of treatment
Method: as §1, §2
as §3, with “Lipistase. […]” for “Lipistase.”

[7] = intestinal tract; cited from earlier work

Structure (SMILES): CC(C)c1c(C(=O)Nc2ccccc2)c(-c2ccccc2)c(-c2ccc(F)cc2)n1CC[C@@H](O)C[C@@H](O)CC(=O)O [atorvastatin]
- Body weight compared to control animals (FIG. 1) [1]: significantly lower
- Weight gain (FIG. 2) [1]: reduction of weight gain
- Adiposity index, effect in words (FIG. 5) [2]: reduction of this index
- Epididymal fat, percentage change compared to controls HC (FIG. 6) [2]: −46%
- Perirenal (deep) fat, percentage change compared to controls HC (FIG. 6) [2]: −48%
- Subcutaneous fat, percentage change compared to controls HC (FIG. 6) [2]: −57%
- Adiponectin secretion index, effect in words (FIG. 9) [3]: significantly elevated
- Free cholesterol in VLDL, percentage change compared to controls HC (FIG. 11b) [4]: −35%
- Glycemia / blood sugar, effect in words [5]: at the same level than that of the control animals
- Insulin levels, percentage change compared to controls HC (FIG. 14) [6]: −50%
- Insulinemia, circulating rate (FIG. 14) [6]: 2.79 ± 0.33 ng/mL

Structure (SMILES): CC(C)CCC[C@@H](C)[C@H]1CC[C@H]2[C@@H]3CC=C4C[C@@H](O)CC[C@]4(C)[C@H]3CC[C@]12C [cholesterol]
- Intestinal absorption [7]: 50%

Structure (SMILES): CC[C@H](CC[C@@H](C)[C@H]1CC[C@H]2[C@@H]3CC[C@H]4C[C@@H](O)CC[C@]4(C)[C@H]3CC[C@]12C)C(C)C [sitostanol]
- Intestinal absorption [7]: 1%

Structure (SMILES): CC[C@H](CC[C@@H](C)[C@H]1CC[C@H]2[C@@H]3CC=C4C[C@@H](O)CC[C@]4(C)[C@H]3CC[C@]12C)C(C)C [sitosterol]
- Intestinal absorption [7]: 4-7%
